Test results from patent US5607970A, “ACAT inhibitory agent” (priority 1991, dated 1997).
Like-named read-outs stand apart in the source and are kept apart here.

Key:
[1] = target: T1, ACAT (AcylCoA-Cholesterolacyltransferase) (Oryctolagus cuniculus, UniProt G1SFD9); test: ACAT inhibitory activity in test tube (method of Heider et al., [1-14C]oleylCoA, small intestine epithelium microsome fraction); format: biochemical, rabbit; settings: read-out: Inhibitory Ratio (%)
T1 construct: from tissue; host or cells: rabbit small intestine epithelium, microsome fraction
T1 sequence (G1SFD9 1-524): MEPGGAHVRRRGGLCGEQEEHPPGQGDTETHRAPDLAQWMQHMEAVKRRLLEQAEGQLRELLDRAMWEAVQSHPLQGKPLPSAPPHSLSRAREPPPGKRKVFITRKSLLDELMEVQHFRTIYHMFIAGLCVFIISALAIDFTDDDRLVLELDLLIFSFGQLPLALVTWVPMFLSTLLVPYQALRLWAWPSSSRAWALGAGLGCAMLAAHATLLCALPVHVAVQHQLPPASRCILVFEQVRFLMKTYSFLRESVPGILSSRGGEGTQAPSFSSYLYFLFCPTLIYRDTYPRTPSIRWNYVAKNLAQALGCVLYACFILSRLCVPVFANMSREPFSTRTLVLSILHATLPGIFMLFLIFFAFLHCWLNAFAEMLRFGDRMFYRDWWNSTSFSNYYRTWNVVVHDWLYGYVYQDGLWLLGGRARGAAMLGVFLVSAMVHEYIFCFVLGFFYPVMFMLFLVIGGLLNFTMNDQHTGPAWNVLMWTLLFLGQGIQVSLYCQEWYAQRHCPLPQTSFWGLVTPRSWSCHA
Description: That is, a rabbit is fed a 1% cholesterol diet for 3 weeks followed by dissection and extraction of the small intestine. After peeling off the small intestine epithelium and crushing with a homogenizer, incompletely crushed solids are removed by centrifugal separation. […] After allowing the reaction to proceed for the prescribed amount of time, 7 ml of a mixture of dichloromethane: methanol (2:1) is added to the reaction mixture and thoroughly mixed. The reaction, is stopped and the dichloromethane layer is removed, after which the cholesterol oleate portion is separated from that fraction by silica gel TLC (developing solution: petroleum ether:diethyl ether=95:5). The separated portion is scraped off and the radioactivity is measured using a liquid scintillation counter to calculate ACAT activity.

[2] = tested on: ACAT activity of small intestine epithelial cells; test: Animal test: ACAT activity of small intestine epithelial cells after administration in feed; format: in vivo; settings: male hamsters, 1 mg/animal/day mixed in feed
Description: A test substance according to the present invention was administered to hamsters (males, body weight: 100 g) at a dose of 1 mg/animal/day by mixing in the same to their feed. The ACAT activity of small intestine epithelial cells was then measured after one week and after two weeks.

[3] = Concentration 20 μg/ml, rabbit small intestine microsome ACAT
[4] = Concentration 50 μg/ml, rabbit small intestine microsome ACAT
[5] = Concentration 100 μg/ml, rabbit small intestine microsome ACAT
[6] = Concentration 150 μg/ml, rabbit small intestine microsome ACAT
[7] = Concentration 200 μg/ml, rabbit small intestine microsome ACAT

inhibition at 20 µg/mL [1, 3]	inhibition at 50 µg/mL [1, 4]	inhibition at 100 µg/mL [1, 5]	inhibition at 150 µg/mL [1, 6]	inhibition at 200 µg/mL [1, 7]	Structure (SMILES)	ACAT Inhibitory Ratio (%) After 1 week [2]	ACAT Inhibitory Ratio (%) After 2 weeks [2]	inhibition at 20 µg/mL [1]	inhibition at 50 µg/mL [1]	inhibition at 100 µg/mL [1]	inhibition at 150 µg/mL [1]	inhibition at 200 µg/mL [1]
28%	54%	74%	86%	93%	CCCCC/C=C\C/C=C\CCCCCCCC(=O)OCC(O)CO (stereo not shown)	59%	53%					
					CCCCCCCC/C=C\CCCCCCCC(=O)OCC(O)CO (stereo not shown)	60%	52%	30%	59%	81%	92%	100%
					CCCCCCCC/C=C\CCCCCCCC(=O)OC(CO)CO	64%	56%	32%	62%	82%	94%	100%
					CC/C=C\C/C=C\C/C=C\CCCCCCCC(=O)OCC(O)CO (stereo not shown) [1-linolenoylglycerol]	57%	51%	25%	50%	76%	86%	92%
24%	53%	72%	84%	91%	CCCCCC/C=C\CCCCCCCC(=O)OCC(O)CO (stereo not shown) [1-palmitooleylglycerol]	57%	54%					
26%	56%	75%	86%	94%	CCCCCCCCCCCCCCCC(=O)OCC(O)CO (stereo not shown) [1-palmitoylglycerol]	56%	50%					
					CCCCCCCCCCCCCCCCCC(=O)OCC(O)CO (stereo not shown) [1-stearoylglycerol]	31%	29%	15%	29%	38%	45%	49%
